{
  "source": "patent US9394570B2",
  "about": "“Marker for colon cancer and method for detecting colon cancer” (The Chinese University of Hong Kong, priority 2010, dated 2016)",
  "test_system": "TBX5 expression in methylated colon cancer cell lines",
  "test": "Demethylation with 5-Aza, TBX5 mRNA expression by RT-PCR",
  "format": "cell-based, human",
  "conditions": "2 μM 5-Aza for 5 days; 4 methylated cell lines with silenced or downregulated TBX5",
  "method": "Total RNA was extracted from cell pellets and tissues using TRIzol Reagent according to the manufacturer's instruction (Molecular Research Center, Inc., Cincinnati, Ohio). cDNA was synthesized from 2 μg total RNA using Transcriptor Reverse Transcriptase (Roche Applied Sciences, Indianapolis, Ind.). For semi-quantitative RT-PCR, a 151 bp fragment of the TBX5 gene was amplified for 36 cycles using AmpliTaq Gold DNA polymerase (Applied Biosystems, Foster City, Calif.) as previously reported (Yu et al, Gastro), with β-actin as internal control. The primer sequences of TBX5 are: forward 5′-[…]-3′ (SEQ ID NO:2) and reverse 5′-[…]-3′ (SEQ ID NO:3). Real-time PCR was performed using SYBR Green master mixture on HT7900 system according to the manufactures' instructions (Applied Biosystems).\nCells were seeded at a density of 1×10^6 cells/mL. After 24 hours, cells were treated with 2 μM of the DNA demethylating agent 5-Aza (Sigma-Aldrich, St Louis, Mo.) for 5 days. 5-Aza was replenished every day. Controlled cells were treated with an equivalent concentration of vehicle (DMSO). Cells were then harvested for DNA and RNA extractions.",
  "note": "Entries after “also recorded” stand apart in the source; their conditions may differ.",
  "data": [
    {"smiles": "Nc1ncn([C@H]2C[C@H](O)[C@@H](CO)O2)c(=O)n1", "note": "[5-Aza, 5-Aza-2′-deoxycytidine]", "values": [
      {"measurement": "TBX5 mRNA expression after demethylation treatment", "result": "restoration of TBX5 expression in all cell lines examined; also recorded: restored"}
    ]}
  ]
}
